Data as given in BindingDB's records for doi:10.1016/j.bmcl.2004.01.072 (Array Biopharma, 2004).

Test: Inhibition of MDC-stimulated chemotaxis in transfected murine cell line expressing human chemokine receptor 4

EC50 [nM]	SMILES
600	C[C@@H](NC(=O)C[C@H]1S[C@H](c2ccc(Cl)cc2Cl)N(CC(=O)NCCCN2CCCCC2)C1=O)c1cccc2ccccc12 [2-{(2R,5R)-2-(2,4-Dichloro-phenyl)-5-[((R)-1-naphthalen-1-yl-ethylcarbamoyl)-methyl]-4-oxo-thiazolidin-3-yl}-N-(3-piperidin-1-yl-propyl)-acetamide]
2000	Cc1c(Cl)cccc1CNC(=O)C[C@H]1S[C@H](c2ccc(Cl)cc2Cl)N(CC(=O)NCCCN2CCCCC2)C1=O [2-[(2R,5R)-5-[(3-Chloro-2-methyl-benzylcarbamoyl)-methyl]-2-(2,4-dichloro-phenyl)-4-oxo-thiazolidin-3-yl]-N-(3-piperidin-1-yl-propyl)-acetamide]
